In patent US9957263B2, “Bromodomain inhibitors” (AbbVie Inc., priority 2013, dated 2018):

Key:
BRD4 (BDI_K57-E168) = BRD4 (BDI_K57-E168) (Homo sapiens (Human), UniProt O60885); assay: TR-FRET bromodomain binding assay, BRD4 first bromodomain; settings: His-tagged BD1, Alexa647-labeled probe 100 nM
Procedure, shortened: (§1)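 Probe displacement, TR-FRET: 8 nM His-BRD4 domain, 1 nM Eu-anti-His, Alexa647 BET-inhibitor probe 100 nM (BDI)/30 nM (BDII); 20 mM Na phosphate pH 6.0, 50 mM NaCl, 1 mM DTT; cpd 50 μM-0.85 nM, 3-fold; 1 h RT; Ex 340/[…]; IC50 → Ki.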

[1] = system: breast cancer cell line MX-1; assay: MX-1 cell line proliferation assay, Method B; format: cell-based; settings: Homo sapiens, MX1; MX-1 cells, 384-well, 72 hours, Cell Titer Glo; read-out: Cellular proliferation: EC50 Method B
Method: The impact of compounds of the Examples on cancer cell proliferation was determined using the breast cancer cell line MX-1 (ATCC) in a 3-day proliferation assay and the data are reported in Table 1.
Method B: MX-1 cells were maintained in RPMI 1640 medium (Sigma) supplemented with 10% FBS at 37 C.° and an atmosphere of 5% CO2. For compound testing, MX-1 cells were plated in 384-well white with clear, flat bottom plates at a density of 750 cells/well in 25 μL of culture media and incubated at 370 overnight to allow cell adhesion and spreading. Ten point compound dilution series were prepared in DMSO via a 3-fold serial dilution from either […] or 1 μM stock and added directly to the appropriate wells of the MX-1 cell plate by an ECHO liquid handler (Labcyte). The final compound concentrations in the wells were 10, 3.25, 1, 0.25, 0.124, 0.040, 0.0124, 0.0031, 0.0015 and 0.0005 μM or 1, 0.33, 0.1, 0.025, 0.0124, 0.004, 0.0012, 0.0003, 0.00015, 0.00005 μM, depending on the concentration of the compound stock solution.
Luminescence readings from the Cell Titer Glo assay were normalized to the DMSO treated cells and analyzed using Accelrys Assay Explorer 3.3 software with sigmoidal curve fitting to obtain ECsos. The minimum significant ratio (MSR) was determined to evaluate assay reproducibility (Eastwood et al., (2006) J Biomol Screen, 11: 253-261). The overall MSR was determined to be 3.3 and a moving MSR (last six run MSR overtime) has averaged

BRD4 (BDII_E352-M457) = BRD4 (BDII_E352-M457) (Homo sapiens (Human), UniProt O60885); assay: TR-FRET bromodomain binding assay, BRD4 second bromodomain; settings: His-tagged BD2, Alexa647-labeled probe 30 nM
Procedure, shortened: as §1

SMILES	Ki (BRD4 (BDI_K57-E168))	EC50 [1]	Ki (BRD4 (BDII_E352-M457))
CCNC(=O)c1cc2c(-c3ccc(C(=O)N(CCCN(C)C)C4CCCCC4)cc3Oc3c(C)cccc3C)cn(C)c(=O)c2[nH]1 [Example 172, 4-[4-{cyclohexyl[3-(dimethylamino)propyl]carbamoyl}-2-(2,6-dimethylphenoxy)phenyl]-N-ethyl-6-methyl-7-oxo-6,7-dihydro-1H-pyrrolo[2,3-c]pyridine-2-carboxamide]	1000 nM	2540 nM	6.66 nM
CCNC(=O)c1cc2c(-c3cc(S(=O)(=O)CC)ccc3Oc3c(C)cccc3CCC3CCCC3)cn(C)c(=O)c2[nH]1 [Example 164, 4-{2-[2-(2-cyclopentylethyl)-6-methylphenoxy]-5-(ethylsulfonyl)phenyl}-N-ethyl-6-methyl-7-oxo-6,7-dihydro-1H-pyrrolo[2,3-c]pyridine-2-carboxamide]	–	10000 nM	15.1 nM
CCNC(=O)c1cc2c(-c3ccc(C(=O)N(CCCN4CCOCC4)Cc4ccccc4)cc3Oc3c(C)cccc3C)cn(C)c(=O)c2[nH]1 [Example 161, 4-[4-{benzyl[3-(morpholin-4-yl)propyl]carbamoyl}-2-(2,6-dimethylphenoxy)phenyl]-N-ethyl-6-methyl-7-oxo-6,7-dihydro-1H-pyrrolo[2,3-c]pyridine-2-carboxamide]	1050 nM	–	3.16 nM
CCNC(=O)c1cc2c(-c3ccc(C(=O)N(CCN4CCSCC4)c4ccc(Cl)c(Cl)c4)cc3Oc3c(C)cccc3C)cn(C)c(=O)c2[nH]1 [Example 162, 4-[4-{(3,4-dichlorophenyl)[2-(thiomorpholin-4-yl)ethyl]carbamoyl}-2-(2,6-dimethylphenoxy)phenyl]-N-ethyl-6-methyl-7-oxo-6,7-dihydro-1H-pyrrolo[2,3-c]pyridine-2-carboxamide]	> 12700 nM	–	88.6 nM
CCS(=O)(=O)c1ccc(OCC2CC2(F)F)c(-c2cn(C)c(=O)c3[nH]c(CN4CCN(c5nccs5)CC4)cc23)c1 (stereo not shown) [Example 17, 4-{2-[(2,2-difluorocyclopropyl)methoxy]-5-(ethylsulfonyl)phenyl}-6-methyl-2-{[4-(1,3-thiazol-2-yl)piperazin-1-yl]methyl}-1,6-dihydro-7H-pyrrolo[2,3-c]pyridin-7-one]	4.4 nM	–	60 nM
CCS(=O)(=O)Nc1cc(-c2cn(C)c(=O)c3[nH]ccc23)c(Oc2ccc(F)cc2F)cc1CNC1CCCC1 [Example 7, N-{2-[(cyclopentylamino)methyl]-4-(2,4-difluorophenoxy)-5-(6-methyl-7-oxo-6,7-dihydro-1H-pyrrolo[2,3-c]pyridin-4-yl)phenyl}ethanesulfonamide]	32 nM	–	6.9 nM
CCS(=O)(=O)Nc1cc(-c2cn(C)c(=O)c3[nH]ccc23)c(Oc2ccc(F)cc2F)cc1CN1CCOCC1 [Example 4, N-[4-(2,4-difluorophenoxy)-5-(6-methyl-7-oxo-6,7-dihydro-1H-pyrrolo[2,3-c]pyridin-4-yl)-2-(morpholin-4-ylmethyl)phenyl]ethanesulfonamide]	11 nM	–	1.7 nM
COc1cccc(S(=O)(=O)Nc2cccc(Oc3ccc(S(C)(=O)=O)cc3-c3cn(C)c(=O)c4[nH]ccc34)c2)c1 [Example 42, 3-methoxy-N-{3-[2-(6-methyl-7-oxo-6,7-dihydro-1H-pyrrolo[2,3-c]pyridin-4-yl)-4-(methylsulfonyl)phenoxy]phenyl}benzenesulfonamide]	9.1 nM	–	3.5 nM
CCNC(=O)c1cc2c(-c3cc(S(=O)(=O)CC)ccc3Oc3c(C)cccc3CCc3ccccc3)cn(C)c(=O)c2[nH]1 [Example 148, N-ethyl-4-{5-(ethylsulfonyl)-2-[2-methyl-6-(2-phenylethyl)phenoxy]phenyl}-6-methyl-7-oxo-6,7-dihydro-1H-pyrrolo[2,3-c]pyridine-2-carboxamide]	5720 nM	–	7.02 nM
CCNC(=O)c1cc2c(-c3cc(S(=O)(=O)CC)ccc3Oc3c(C)cccc3CN3CCCCC3)cn(C)c(=O)c2[nH]1 [Example 147, N-ethyl-4-{5-(ethylsulfonyl)-2-[2-methyl-6-(piperidin-1-ylmethyl)phenoxy]phenyl}-6-methyl-7-oxo-6,7-dihydro-1H-pyrrolo[2,3-c]pyridine-2-carboxamide]	761 nM	–	57.5 nM
Cn1cc(-c2cc(S(C)(=O)=O)ccc2Oc2cccc(NCC3CCOC3)c2)c2cc[nH]c2c1=O (stereo not shown) [Example 77, 6-methyl-4-[5-(methylsulfonyl)-2-{3-[(tetrahydrofuran-3-ylmethyl)amino]phenoxy}phenyl]-1,6-dihydro-7H-pyrrolo[2,3-c]pyridin-7-one]	11 nM	–	2.8 nM
Cn1cc(-c2cc(S(C)(=O)=O)ccc2NC2CCN(C(=O)C3(C(N)=O)CC3)CC2)c2cc[nH]c2c1=O [Example 93, 1-[(4-{[2-(6-methyl-7-oxo-6,7-dihydro-1H-pyrrolo[2,3-c]pyridin-4-yl)-4-(methylsulfonyl)phenyl]amino}piperidin-1-yl)carbonyl]cyclopropanecarboxamide]	19 nM	–	24 nM
CCS(=O)(=O)Nc1ccc(Oc2ccc(F)cc2F)c(-c2cn(C)c(=O)c3[nH]c(C#CCOC)cc23)c1 [Example 163, N-{4-(2,4-difluorophenoxy)-3-[2-(3-methoxyprop-1-yn-1-yl)-6-methyl-7-oxo-6,7-dihydro-1H-pyrrolo[2,3-c]pyridin-4-yl]phenyl}ethanesulfonamide]	1.64 nM	–	0.605 nM
Cn1cc(-c2cc(S(C)(=O)=O)ccc2Oc2ccc(F)cc2F)c2cc(CN3CCN(c4nccs4)CC3)[nH]c2c1=O [Example 114, 4-[2-(2,4-difluorophenoxy)-5-(methylsulfonyl)phenyl]-6-methyl-2-{[4-(1,3-thiazol-2-yl)piperazin-1-yl]methyl}-1,6-dihydro-7H-pyrrolo[2,3-c]pyridin-7-one]	6.93 nM	–	80.7 nM
Cn1cc(-c2cc(S(C)(=O)=O)ccc2NC2CCN(C(=O)CN3CCCC3)CC2)c2cc[nH]c2c1=O [Example 97, 6-methyl-4-[5-(methylsulfonyl)-2-{[1-(pyrrolidin-1-ylacetyl)piperidin-4-yl]amino}phenyl]-1,6-dihydro-7H-pyrrolo[2,3-c]pyridin-7-one]	10 nM	–	28 nM
Cn1cc(-c2cc(S(C)(=O)=O)ccc2N[C@H]2CC[C@H](NCc3ccc(Cl)cc3)CC2)c2cc[nH]c2c1=O [Example 113, 4-[2-({trans-4-[(4-chlorobenzyl)amino]cyclohexyl}amino)-5-(methylsulfonyl)phenyl]-6-methyl-1,6-dihydro-7H-pyrrolo[2,3-c]pyridin-7-one]	2.5 nM	–	7 nM
Cc1ccc(CNc2cccc(Oc3ccc(S(C)(=O)=O)cc3-c3cn(C)c(=O)c4[nH]ccc34)c2)c(C)c1 [Example 70, 4-[2-{3-[(2,4-dimethylbenzyl)amino]phenoxy}-5-(methylsulfonyl)phenyl]-6-methyl-1,6-dihydro-7H-pyrrolo[2,3-c]pyridin-7-one]	16 nM	–	6.5 nM
Cn1cc(-c2cc(S(C)(=O)=O)ccc2Oc2cccc(NCc3cccc(OC(F)(F)F)c3)c2)c2cc[nH]c2c1=O [Example 69, 6-methyl-4-[5-(methylsulfonyl)-2-(3-{[3-(trifluoromethoxy)benzyl]amino}phenoxy)phenyl]-1,6-dihydro-7H-pyrrolo[2,3-c]pyridin-7-one]	4.1 nM	–	1.6 nM
CCS(=O)(=O)c1ccc(Oc2ccc(F)cc2F)c(-c2cn(C)c(=O)c3[nH]c(-c4cccnc4N4CCOCC4)cc23)c1 [Example 118, 4-[2-(2,4-difluorophenoxy)-5-(ethylsulfonyl)phenyl]-6-methyl-2-[2-(morpholin-4-yl)pyridin-3-yl]-1,6-dihydro-7H-pyrrolo[2,3-c]pyridin-7-one]	99.2 nM	–	367 nM
CCS(=O)(=O)c1ccc(OCC2CC2(F)F)c(-c2cn(C)c(=O)c3[nH]c(C#CCN(C)C)cc23)c1 (stereo not shown) [Example 63, 4-{2-[(2,2-difluorocyclopropyl)methoxy]-5-(ethylsulfonyl)phenyl}-2-[3-(dimethylamino)prop-1-yn-1-yl]-6-methyl-1,6-dihydro-7H-pyrrolo[2,3-c]pyridin-7-one]	1.3 nM	–	3.3 nM
CC(=O)c1ccc(S(=O)(=O)Nc2cccc(Oc3ccc(S(C)(=O)=O)cc3-c3cn(C)c(=O)c4[nH]ccc34)c2)cc1 [Example 44, 4-acetyl-N-{3-[2-(6-methyl-7-oxo-6,7-dihydro-1H-pyrrolo[2,3-c]pyridin-4-yl)-4-(methylsulfonyl)phenoxy]phenyl}benzenesulfonamide]	4.9 nM	–	2.1 nM
